Where two headings read alike, the source gives them in different places.
Columns and labels:
Type in all cases: cell-based
K-562 = assay: SRB colorimetric cell growth inhibition assay, K-562; conditions: Homo sapiens, K562, K-562
Procedure, shortened: (§1)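 Tested samples remained on human cancer cell cultures throughout the incubation; viable biomass was then stained with SRB and read colorimetrically.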

A-549 = assay: SRB colorimetric cell growth inhibition assay, A-549; conditions: for GI50: GI=growth inhibition, read-out: GI50 A-549; for CC50: LC=cell killing (cytotoxic effect); for IC (TGI): TGI=total growth inhibition (cytostatic effect), read-out: TGI A-549
Procedure, shortened: as §1

SK-MEL-28 = assay: SRB colorimetric cell growth inhibition assay, SK-MEL-28
Procedure, shortened: as §1

HT-29 = assay: SRB colorimetric cell growth inhibition assay, HT-29; conditions: Homo sapiens; for CC50: LC=cell killing (cytotoxic effect); for IC (TGI): TGI=total growth inhibition (cytostatic effect), read-out: TGI HT-29
Procedure, shortened: as §1

LoVo = assay: SRB colorimetric cell growth inhibition assay, LoVo; conditions: Homo sapiens; for CC50: LC=cell killing (cytotoxic effect); for IC (TGI): TGI=total growth inhibition (cytostatic effect), read-out: TGI LOVO
Procedure, shortened: as §1

LoVo-Dox = assay: SRB colorimetric cell growth inhibition assay, LoVo-Dox (MDR)
Procedure, shortened: as §1

DU-145 = assay: SRB colorimetric cell growth inhibition assay, DU-145; conditions: Homo sapiens, DU-145, DU-145
Procedure, shortened: as §1

LNCaP = assay: SRB colorimetric cell growth inhibition assay, LNCaP; conditions: Homo sapiens, LNCaP, LN-caP
Procedure, shortened: as §1

SK-BR-3 = assay: SRB colorimetric cell growth inhibition assay, SK-BR-3; conditions: Homo sapiens, SK-BR-3, SK-BR-3
Procedure, shortened: as §1

IGROV = assay: SRB colorimetric cell growth inhibition assay, IGROV; conditions: Homo sapiens, IGROV
Procedure, shortened: as §1

IGROV-ET = assay: SRB colorimetric cell growth inhibition assay, IGROV-ET (ET-743 resistant); conditions: Homo sapiens; for CC50: LC=cell killing (cytotoxic effect)
Procedure, shortened: as §1

PANC-1 = assay: SRB colorimetric cell growth inhibition assay, PANC-1; conditions: Homo sapiens; for CC50: LC=cell killing (cytotoxic effect)
Procedure, shortened: as §1

SKOV-3 = assay: SRB colorimetric cell growth inhibition assay, SKOV-3; conditions: Homo sapiens
Excerpt: (§2) Inhibition of Cell Growth by Colorimetric Assay.
(§3) A colorimetric type of assay, using sulforhodamine B (SRB) reaction has been adapted for a quantitative measurement of cell growth and viability (following the technique described by P. A. Skehan, et al., J. Natl. Cancer Inst. 1990, 82, 1107-1112).
(§4) This form of assay employs 96 well cell culture microplates of 9 mm diameter (T. Mosmann et al., J. of Immunological Methods 1983, 65, 55-63; G. T. Faircloth et al., J. of Tissue and Culture Methods 1988, 11, 201-205).
(§5) Most of the cell lines are obtained from American Type Culture Collection (ATCC) derived from different human cancer types.
(§6) The values for mean +/− SD of data from triplicate wells are calculated. Some parameters for cellular responses can be calculated: GI=growth inhibition, TGI=total growth inhibition (cytostatic effect) and LC=cell killing (cytotoxic effect).

H-MEC-1 = assay: SRB colorimetric cell growth inhibition assay, H-MEC-1; conditions: Homo sapiens, TGI=total growth inhibition (cytostatic effect)
Excerpt: as §2, §3, §4, §5, §6

[1] = Homo sapiens, SK-MEL-28, MEL-28; TGI=total growth inhibition (cytostatic effect); read-out: TGI MEL-28
[2] = Homo sapiens, LOVO-DOX; TGI=total growth inhibition (cytostatic effect); read-out: TGI LOVO-DOX

COc1cc(-c2c3n(c4c(=O)oc5cc(OC(=O)[C@H](C)N)c(OC)cc5c24)CCc2cc(OC(=O)[C@H](C)N)c(OC)cc2-3)ccc1OC(=O)[C@H](C)N [Compound 42]
GI50 (K-562; GI=growth inhibition, read-out: GI50 K-562): 0.313 µM
CC50 (K-562; LC=cell killing (cytotoxic effect), read-out: LC50 K-562): 5.42 µM
IC (TGI) (K-562; TGI=total growth inhibition (cytostatic effect), read-out: TGI K-562): 1.79 µM
GI50 (A-549; Homo sapiens, A549, A-549): 0.735 µM
CC50 (A-549; Homo sapiens, A549, A-549, read-out: LC50 A-549): 9.46 µM
IC (TGI) (A-549; Homo sapiens, A549, A-549): 2.99 µM
GI50 (SK-MEL-28; Homo sapiens, SK-MEL-28, MEL-28; GI=growth inhibition; read-out: GI50 MEL-28): 1.23 µM
CC50 (SK-MEL-28; Homo sapiens, SK-MEL-28, MEL-28; LC=cell killing (cytotoxic effect); read-out: LC50 MEL-28): 8.94 µM
IC (TGI) (SK-MEL-28; [1]): 3.32 µM
GI50 (HT-29; HT-29, HT-29, GI=growth inhibition, read-out: GI50 HT-29): 3.91 µM
CC50 (HT-29; HT-29, HT-29, read-out: LC50 HT-29): 9.46 µM
IC (TGI) (HT-29; HT-29, HT-29): 9.46 µM
GI50 (LoVo; LoVo, GI=growth inhibition, read-out: GI50 LOVO): 0.463 µM
CC50 (LoVo; LoVo, read-out: LC50 LOVO): 9.46 µM
IC (TGI) (LoVo; LoVo): 3.63 µM
GI50 (LoVo-Dox; Homo sapiens, LOVO-DOX; GI=growth inhibition; read-out: GI50 LOVO-DOX): 0.395 µM
CC50 (LoVo-Dox; Homo sapiens, LOVO-DOX; LC=cell killing (cytotoxic effect); read-out: LC50 LOVO-DOX): 9.46 µM
IC (TGI) (LoVo-Dox; [2]): 2.32 µM
GI50 (DU-145; GI=growth inhibition, read-out: GI50 DU-145): 0.365 µM
CC50 (DU-145; LC=cell killing (cytotoxic effect), read-out: LC50 DU-145): 9.46 µM
IC (TGI) (DU-145; TGI=total growth inhibition (cytostatic effect), read-out: TGI DU-145): 2.28 µM
GI50 (LNCaP; GI=growth inhibition, read-out: GI50 LN-caP): 0.377 µM
CC50 (LNCaP; LC=cell killing (cytotoxic effect), read-out: LC50 LN-caP): 4.91 µM
IC (TGI) (LNCaP; TGI=total growth inhibition (cytostatic effect), read-out: TGI LN-caP): 1.41 µM
GI50 (SK-BR-3; GI=growth inhibition, read-out: GI50 SK-BR-3): 2 µM
CC50 (SK-BR-3; LC=cell killing (cytotoxic effect), read-out: LC50 SK-BR-3): 8.04 µM
IC (TGI) (SK-BR-3; TGI=total growth inhibition (cytostatic effect), read-out: TGI SK-BR-3): 4.01 µM
GI50 (IGROV; GI=growth inhibition, read-out: GI50 IGROV): 0.185 µM
CC50 (IGROV; LC=cell killing (cytotoxic effect), read-out: LC50 IGROV): 2.83 µM
IC (TGI) (IGROV; TGI=total growth inhibition (cytostatic effect), read-out: TGI IGROV): 0.56 µM
GI50 (IGROV-ET; IGROV-ET, GI=growth inhibition, read-out: GI50 IGROV-ET): 0.238 µM
CC50 (IGROV-ET; IGROV-ET, read-out: LC50 IGROV-ET): 6.62 µM
IC (TGI) (IGROV-ET; IGROV-ET, TGI=total growth inhibition (cytostatic effect), read-out: TGI IGROV-ET): 0.678 µM
GI50 (PANC-1; PANC-1, PANC-1, GI=growth inhibition, read-out: GI50 PANC-1): 0.732 µM
CC50 (PANC-1; PANC-1, PANC-1, read-out: LC50 PANC-1): 9.46 µM
IC (TGI) (PANC-1; PANC-1, PANC-1, TGI=total growth inhibition (cytostatic effect), read-out: TGI PANC-1): 4.06 µM
GI50 (SKOV-3; SK-OV-3, SKOV-3, GI=growth inhibition, read-out: GI50 SKOV-3): 1.24 µM
CC50 (SKOV-3; SK-OV-3, SKOV-3, LC=cell killing (cytotoxic effect), read-out: LC50 SKOV-3): 9.46 µM
IC (TGI) (SKOV-3; SK-OV-3, SKOV-3, TGI=total growth inhibition (cytostatic effect), read-out: TGI SKOV-3): 4.44 µM

COc1cc(-c2c3n(c4c(=O)oc5cc(OC(=O)[C@H](C)NC(=O)OC(C)(C)C)c(OC)cc5c24)CCc2c-3cc(OC)c(OC)c2OC(=O)[C@H](C)NC(=O)OC(C)(C)C)ccc1OC(=O)[C@H](C)NC(=O)OC(C)(C)C [Compound 46]
GI50 (A-549; A-549): 2.33 µM
GI50 (A-549; Homo sapiens, A549, A-549): 1.31 µM
IC (TGI) (A-549; Homo sapiens, A549, A-549): 9.57 µM
CC50 (A-549; Homo sapiens, A549, read-out: LC50 A-549, A-549): 9.57 µM
IC (TGI) (SK-MEL-28; [1]): 0.00417 µM
IC (TGI) (SK-MEL-28; Homo sapiens, SK-MEL-28; MEL-28; TGI=total growth inhibition (cytostatic effect); read-out: TGI MEL-28): 9.57 µM
CC50 (HT-29; HT-29, read-out: LC50 HT-29, HT-29): 9.57 µM
IC (TGI) (HT-29; HT-29): 9.57 µM
CC50 (LoVo; LoVo, read-out: LC50 LOVO, LOVO): 9.57 µM
IC (TGI) (LoVo; LoVo): 0.00932 µM
IC (TGI) (LoVo; LOVO): 9.57 µM
IC (TGI) (LoVo-Dox; [2]): 0.0957 µM
CC50 (LoVo-Dox; Homo sapiens, read-out: LC50 LOVO-DOX, LOVO-DOX; LC=cell killing (cytotoxic effect)): 9.57 µM
IC (TGI) (LoVo-Dox; Homo sapiens; LOVO-DOX; TGI=total growth inhibition (cytostatic effect); read-out: TGI LOVO-DOX): 9.57 µM
CC50 (IGROV-ET; read-out: LC50 IGROV-ET, IGROV-ET): 9.57 µM
CC50 (PANC-1; PANC-1, read-out: LC50 PANC-1, PANC-1): 9.57 µM
CC50 (SKOV-3; SK-OV-3, read-out: LC50 SKOV-3): 9.57 µM
IC (TGI) (H-MEC-1; HMEC-1, read-out: TGI H-MEC-1, H-MEC-1): 9.57 µM
IC (TGI) (H-MEC-1; HMEC-1, H-MEC-1, read-out: TGI H-MEC-1): 0.000847 µM
